This is an account of results in ChEMBL document CHEMBL1201862, “PubChem BioAssay data set” (2004).

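Interpolation was linear, between the two tested concentrations surrounding the appropriate level; five concentrations were tested over 48 hours in 96-well plates. The concentration for 50% growth inhibition is given as GI50.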 Activity calls are given as the source filed them. Rule as the data show it: active = GI50 up to about 1.1 µM and inactive = higher.

What all share (experiment): NCI anticancer screen, dose series, 48 h
The test system of experiment [1] is A549.
Experiment [2] concerns NCI-H522.
In experiment [3] the test system is HOP-92.
Experiment [4] relates to TK-10.
In experiment [5] the test system is EKVX.
The test system of experiment [6] is OVCAR-8.
Experiment [7] concerns DU-145.
Experiment [8] deals with NCI-H460.
The subject of experiment [9] is NCI-H226.
For experiment [10], the system named is MDA-MB-231.
Experiment [11] deals with SF-295.
The test system of experiment [12] is MOLT-4.
The test system of experiment [13] is Malme-3M.
The test system of experiment [14] is M14.
Experiment [15] deals with LOX IMVI.
Experiment [16] concerns COLO 205.
The subject of experiment [17] is SNB-19.
In experiment [18] the test system is MDA-N.

For `Cc1cn2c(/C=N/NC(=N)N)c(-c3cccc([N+](=O)[O-])c3)nc2s1`, the GI50 was 1.95 µM (inactive) in experiment [1]; 2.08 µM (inactive) in experiment [2]; 1.64 µM (inactive) in experiment [3]; 2.21 µM (inactive) in experiment [4]; 2.38 µM (inactive) in [5]; 1.78 µM (inactive) in experiment [6]. The GI50 in [7] is 1.74 µM (inactive); in experiment [8], 2.01 µM (inactive); in experiment [9], 1.91 µM (inactive); in experiment [10], 1.41 µM (inactive); in experiment [11], 1.81 µM (inactive); in experiment [12], 1.77 µM (inactive). In addition, the GI50 in experiment [13] is 1.96 µM (inactive); in experiment [14] it was 1.85 µM (inactive); in [15], 0.849 µM (active).
With `Clc1ccc(/C=c2\nc(-c3ccccc3)n3c2nc2ccccc23)cc1`, the GI50 in experiment [1] is > 100 µM (inactive); in experiment [3] it was > 100 µM (inactive); in experiment [4] it was > 100 µM (inactive); in experiment [5], 19.7 µM (inactive); in [6] it was 32.7 µM (inactive); in [7] it was > 100 µM (inactive). Further, the GI50 was > 100 µM (inactive) in [8]; > 100 µM (inactive) in [9]; > 100 µM (inactive) in [16]; 61.5 µM (inactive) in experiment [10]; 25.5 µM (inactive) in experiment [11]; > 100 µM (inactive) in experiment [12]. The GI50 in experiment [17], in [13], in experiment [14] and in experiment [15] was > 100 µM (inactive) throughout.
For `Cc1ccc(NC(=S)SCCC(=O)O)cc1`, the GI50 in experiment [1], in experiment [2], in experiment [4], in experiment [5], in [6] and in experiment [8] was > 100 µM (inactive) throughout. For the same compound, the GI50 in [9], in experiment [16], in experiment [11], in [12], in [17] and in experiment [14] was > 100 µM (inactive) in each case. In addition, the GI50 in [15] is > 100 µM (inactive).
Turning to `O=C1CN(c2ccc(Cl)cc2)C(=O)CN1CCN1CC(=O)N(c2ccc(Cl)cc2)CC1=O`, the GI50 in experiment [1], in [2], in experiment [3], in experiment [18], in experiment [4] and in [5] was > 100 µM (inactive) throughout. Further, the GI50 in experiment [6], in experiment [7], in experiment [8], in experiment [16], in experiment [11] and in [12] was > 100 µM (inactive) in each case. Besides, the GI50 in experiment [17], in experiment [13] and in experiment [14] was > 100 µM (inactive) throughout.
As for `CCN(CC)CCn1nc(N)c2nc3ccccc3nc21`, the GI50 in experiment [1] was > 100 µM (inactive); in [2] it was 96.4 µM (inactive); in experiment [3] it was > 100 µM (inactive); in [18], > 100 µM (inactive); in [4], > 100 µM (inactive); in experiment [5] it was > 100 µM (inactive). The GI50 in experiment [6] is > 100 µM (inactive); in experiment [8], > 100 µM (inactive); in experiment [9] it was > 100 µM (inactive); in experiment [11] it was > 100 µM (inactive); in experiment [12], 63.7 µM (inactive); in experiment [17], > 100 µM (inactive). For the same compound, the GI50 in experiment [13], in experiment [14] and in [15] was > 100 µM (inactive) in each case.
As for `CCC12C=CCN3CCC4(c5cc(C6(C(=O)OC)CCCCCc7c6[nH]c6ccccc76)c(OC)cc5N(C)C4C(O)(C(=O)OC)C1OC(C)=O)C32` (stereo unspecified), the GI50 in experiment [1] was 3.02 µM (inactive); in [3], 2.26 µM (inactive); in experiment [4], 2.39 µM (inactive); in [5], 3.57 µM (inactive); in experiment [6] it was 3.06 µM (inactive); in [8], 2.31 µM (inactive). Moreover, the GI50 in [9] was 2.64 µM (inactive); in experiment [16] it was 2.93 µM (inactive); in experiment [11] it was 1.91 µM (inactive); in experiment [12], 2.14 µM (inactive); in experiment [17], 3.15 µM (inactive); in [13] it was 1.87 µM (inactive). The results for the GI50 in experiment [14] and in experiment [15] were 2.64 µM (inactive) and 1.61 µM (inactive), respectively.
As to `O=[N+]([O-])c1ccc(C2c3c(O)nc(O)nc3Oc3nc(O)nc(O)c32)cc1`, the GI50 in [1] is > 100 µM (inactive); in experiment [2] it was 17.9 µM (inactive); in experiment [18], > 100 µM (inactive); in experiment [4] it was > 100 µM (inactive); in experiment [5], > 100 µM (inactive); in experiment [6], > 100 µM (inactive). Also, the GI50 in experiment [7], in experiment [8], in [9], in experiment [16], in experiment [10] and in experiment [11] was > 100 µM (inactive) throughout. Further, the GI50 in experiment [17] and in experiment [14] was > 100 µM (inactive) in each case.
For the compound `O=C(O)C(=Cc1ccc(-c2ccc([N+](=O)[O-])cc2)o1)C(=O)O`, the GI50 in experiment [1], in experiment [2], in experiment [18], in [4], in experiment [5] and in [6] was > 100 µM (inactive) in each case. In addition, the GI50 in [7], in experiment [8], in experiment [9], in [16], in experiment [10] and in experiment [11] was > 100 µM (inactive) throughout. The GI50 in experiment [12], in experiment [17], in experiment [13], in [14] and in [15] was > 100 µM (inactive) in each case.
As for `OCc1ccc(C2CC(c3ccco3)=NN2c2ccccc2)o1` (stereo unspecified), the GI50 in experiment [1], in experiment [2], in experiment [4], in experiment [5], in experiment [6] and in [8] was > 100 µM (inactive) each time. Moreover, the GI50 in [9], in experiment [16], in [11], in experiment [12], in experiment [17] and in experiment [13] was > 100 µM (inactive) in each case. Further, the GI50 in experiment [14] and in experiment [15] was > 100 µM (inactive) throughout.
Consider `COC(=O)C1=C(C)N(NC(=O)c2cccc(Cl)c2)C(C)(O)C12CCOC2=O` (stereo unspecified), for which the GI50 in experiment [1] was > 100 µM (inactive); in [2], > 100 µM (inactive); in [5] it was 58.7 µM (inactive); in experiment [6], > 100 µM (inactive); in experiment [8], > 100 µM (inactive); in experiment [9] it was > 100 µM (inactive). Besides, the GI50 in experiment [11], in experiment [12], in experiment [17], in experiment [13], in [14] and in [15] was > 100 µM (inactive) in each case.
For `CCCCCCCCCCCCCCCCC(C(=O)O)C(O)(CC(=O)O)C(=O)O` (stereo unspecified), the GI50 in experiment [18] is 47 µM (inactive); in experiment [4], 34.8 µM (inactive); in experiment [5], 20.2 µM (inactive); in experiment [6] it was 39.1 µM (inactive); in experiment [7], 35.6 µM (inactive); in experiment [8], 17.5 µM (inactive). Besides, the GI50 in experiment [9] is 22.6 µM (inactive); in experiment [16] it was 18.7 µM (inactive); in experiment [10], 27.5 µM (inactive); in [11] it was 17.7 µM (inactive); in experiment [12], 25.5 µM (inactive); in experiment [17], 23.9 µM (inactive). In addition, the GI50 is 58.6 µM (inactive) in [13], 19.7 µM (inactive) in [14] and 26.5 µM (inactive) in [15].
Turning to `C[C@H](CC[C@@H](O)C(C)(C)O)[C@H]1CC[C@@]2(C)[C@@H]3CC=C4[C@@H](CC[C@H](O)C4(C)C)[C@]3(C)C(=O)C[C@]12C` [BRYODULCOSIGENIN], the GI50 in experiment [1] was 27.7 µM (inactive); in experiment [2] it was 31.7 µM (inactive); in experiment [18], 22.9 µM (inactive); in experiment [4], > 50 µM (inactive); in experiment [5], 21.2 µM (inactive); in experiment [6] it was 27.4 µM (inactive). Besides, the GI50 was > 50 µM (inactive) in [7]; 31.1 µM (inactive) in experiment [8]; 20.8 µM (inactive) in [9]; 11.1 µM (inactive) in experiment [16]; > 50 µM (inactive) in [10]; > 50 µM (inactive) in [11]. For the same compound, the GI50 in experiment [12] is 19.5 µM (inactive); in [17], > 50 µM (inactive); in experiment [13], > 50 µM (inactive); in experiment [14], 29 µM (inactive); in experiment [15], 45.9 µM (inactive).
Turning to `Cn1cc(NC(=O)c2cc(NC(=O)c3cc(NC=O)cn3C)cn2C)cc1C(=O)NCCC(=N)N` [STALLIMYCIN], the GI50 is > 100 µM (inactive) in [4]; > 100 µM (inactive) in [5]; > 100 µM (inactive) in [6]; > 100 µM (inactive) in experiment [7]; > 100 µM (inactive) in experiment [8]; 7.87 µM (inactive) in [9]. In addition, the GI50 in experiment [16] is > 100 µM (inactive); in experiment [10], > 100 µM (inactive); in [11], > 100 µM (inactive); in experiment [12], > 100 µM (inactive); in experiment [17] it was > 100 µM (inactive); in experiment [13] it was 25.5 µM (inactive). The GI50 in [14] and in experiment [15] was > 100 µM (inactive) throughout.
